# From PubChem BioAssay (NCI)
#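 Method: 48-hour compound exposure of cells in 96-well plates, five concentrations, linear interpolation of endpoints. The concentration for 50% growth inhibition is given as GI50. TGI marks complete inhibition of growth.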
# What was measured:
# Assay in all cases: inhibition of tumour cell growth, NCI panel, 48 h
# [1] = tested on: PC-3 prostate
# [2] = tested on: UACC-257 melanoma
# [3] = tested on: U251 CNS
# [4] = tested on: KM12 colon
# [5] = tested on: ACHN renal
# [6] = tested on: HCT-116 colon
# [7] = tested on: RPMI-8226 leukemia
# [8] = tested on: LOX IMVI melanoma
# [9] = tested on: A498 renal
# [10] = tested on: COLO 205 colon
# [11] = tested on: NCI/ADR-RES ovarian
# [12] = tested on: SF-539 CNS
# [13] = tested on: 786-0 renal
# [14] = tested on: MDA-MB-231 breast
# [15] = tested on: OVCAR-3 ovarian
# [16] = tested on: T-47D breast
# [17] = tested on: SNB-19 CNS
# [18] = tested on: NCI-H522 lung
# [19] = tested on: SF-268 CNS
# [20] = tested on: NCI-H23 lung
# [21] = tested on: SF-295 CNS
# [22] = tested on: HOP-62 NSCLC
# [23] = tested on: SN12C renal
# [24] = tested on: IGROV1 ovarian
# [25] = tested on: CCRF-CEM leukemia
# [26] = tested on: MALME-3M melanoma
# [27] = tested on: MDA-N
# [28] = tested on: HCC-2998 colon
# [29] = tested on: NCI-H460 lung
# [30] = tested on: MCF7 breast
# [31] = tested on: OVCAR-4 ovarian
# [32] = tested on: HOP-92 NSCLC
# [33] = tested on: M14 melanoma
# [34] = tested on: HT29 colon
# [35] = tested on: MOLT-4 leukemia
# [36] = tested on: CAKI-1 renal
# [37] = tested on: NCI-H226 lung
# [38] = tested on: HCT-15 colon
# [39] = tested on: UO-31 renal
# [40] = tested on: SK-OV-3 ovarian
# [41] = tested on: TK-10 renal
# [42] = tested on: OVCAR-5 ovarian
# [43] = tested on: SK-MEL-28 melanoma
# [44] = tested on: DU-145 prostate
# [45] = tested on: HL-60(TB) leukemia
# [46] = tested on: SK-MEL-5 melanoma
# [47] = tested on: UACC-62 melanoma
# [48] = tested on: MDA-MB-435
# [49] = tested on: SK-MEL-2 melanoma
# [50] = tested on: RXF 393 renal
# [51] = tested on: EKVX NSCLC
# [52] = tested on: A549 NSCLC
# [53] = tested on: K-562 leukemia
# [54] = tested on: SR leukemia
# [55] = tested on: OVCAR-8 ovarian
# [56] = tested on: HS 578T breast
# [57] = tested on: SW-620 colon
# [58] = tested on: SNB-75 CNS
# [59] = tested on: BT-549 breast
smiles,measurement,setting,value
CCOC(=O)C1=C(C)N(Cc2ccccc2)C2(O)C=CC(=O)C3C(=O)N(c4ccccc4)C(=O)C132 (stereo unspecified),TGI,[1],6.88 µM
same,TGI,[2],7.59 µM
same,TGI,[3],11.8 µM
same,TGI,[4],4.59 µM
same,TGI,[5],3.25 µM
same,TGI,[6],2490 nM
same,TGI,[7],3.1 µM
same,TGI,[8],3.43 µM
same,TGI,[9],28.1 µM
same,TGI,[10],3.1 µM
same,TGI,[11],10.6 µM
same,TGI,[12],3.45 µM
same,TGI,[13],3.27 µM
same,TGI,[14],12.1 µM
same,TGI,[15],6.08 µM
same,TGI,[16],9.27 µM
same,TGI,[17],21.4 µM
same,TGI,[18],3.32 µM
same,TGI,[19],7.81 µM
same,TGI,[20],5.36 µM
same,TGI,[21],13.7 µM
same,TGI,[22],5.52 µM
same,TGI,[23],10.6 µM
same,TGI,[24],4.32 µM
same,TGI,[25],5.51 µM
same,TGI,[26],7.68 µM
same,TGI,[27],12.5 µM
same,TGI,[28],3.2 µM
same,TGI,[29],4.77 µM
same,TGI,[30],12.7 µM
same,TGI,[31],6.45 µM
same,TGI,[32],7.96 µM
same,TGI,[33],3.92 µM
same,TGI,[34],3.33 µM
same,TGI,[35],5.54 µM
same,TGI,[36],4.17 µM
same,TGI,[37],5.7 µM
same,TGI,[38],5.14 µM
same,TGI,[39],3.81 µM
same,TGI,[40],19.3 µM
same,TGI,[41],9.33 µM
same,TGI,[42],9.85 µM
same,TGI,[43],3.54 µM
same,TGI,[44],7.63 µM
same,TGI,[45],4.98 µM
same,TGI,[46],12.8 µM
same,TGI,[47],4.01 µM
same,TGI,[48],3860 nM
same,TGI,[49],3.98 µM
same,TGI,[50],2940 nM
same,TGI,[51],22.5 µM
same,TGI,[52],10.4 µM
same,TGI,[53],27.3 µM
same,TGI,[54],2880 nM
same,TGI,[55],3.32 µM
same,TGI,[56],34 µM
c1ccc(CSCCC(SCc2ccccc2)SCc2ccccc2)cc1,TGI,[1],> 10 µM
same,TGI,[2],> 10 µM
same,TGI,[57],> 10000 nM
same,TGI,[3],> 10 µM
same,TGI,[4],> 10 µM
same,TGI,[5],> 10 µM
same,TGI,[6],> 10000 nM
same,TGI,[7],> 10 µM
same,TGI,[8],> 10 µM
same,TGI,[9],> 10 µM
same,TGI,[10],> 10 µM
same,TGI,[11],> 10 µM
same,TGI,[12],> 10 µM
same,TGI,[13],> 10 µM
same,TGI,[14],> 10 µM
same,TGI,[15],> 10 µM
same,TGI,[16],> 10 µM
same,TGI,[17],> 10 µM
same,TGI,[18],> 10 µM
same,TGI,[19],> 10 µM
same,TGI,[20],> 10 µM
same,TGI,[21],> 10 µM
same,TGI,[22],> 10 µM
same,TGI,[23],> 10 µM
same,TGI,[24],> 10 µM
same,TGI,[25],> 10 µM
same,TGI,[58],> 10 µM
same,TGI,[26],> 10 µM
same,TGI,[27],> 10 µM
same,TGI,[28],> 10 µM
same,TGI,[29],> 10 µM
same,TGI,[30],> 10 µM
same,TGI,[31],> 10 µM
same,TGI,[32],> 10 µM
same,TGI,[33],> 10 µM
same,TGI,[34],> 10 µM
same,TGI,[35],> 10 µM
same,TGI,[36],> 10 µM
same,TGI,[37],> 10 µM
same,TGI,[38],> 10 µM
same,TGI,[39],> 10 µM
same,TGI,[40],> 10 µM
same,TGI,[41],> 10 µM
same,TGI,[43],> 10 µM
same,TGI,[44],> 10 µM
same,TGI,[45],> 10 µM
same,TGI,[46],> 10 µM
same,TGI,[47],> 10 µM
same,TGI,[49],> 10 µM
same,TGI,[50],> 10000 nM
same,TGI,[51],> 10 µM
same,TGI,[52],> 10 µM
same,TGI,[53],> 10 µM
same,TGI,[54],> 10000 nM
same,TGI,[55],> 10 µM
same,TGI,[56],> 10 µM
COc1cc(/C=C2\CC3C4CC=C5C[C@@H](N6CCCC6)CC[C@]5(C)C4CC[C@]3(C)[C@H]2OC(C)=O)ccc1OCCCn1ccnc1 (stereo partly specified),GI50,[1],958 nM
same,TGI,[1],8.41 µM
same,GI50,[2],2290 nM
same,TGI,[2],5.27 µM
same,GI50,[57],232 nM
same,TGI,[57],1210 nM
same,GI50,[3],84.5 nM
same,TGI,[3],0.164 µM
same,GI50,[4],630 nM
same,TGI,[4],4.02 µM
same,GI50,[5],383 nM
same,TGI,[5],1.09 µM
same,GI50,[6],93.8 nM
same,TGI,[6],1520 nM
same,GI50,[59],2190 nM
same,TGI,[59],9.72 µM
same,GI50,[7],343 nM
same,TGI,[7],> 14 µM
same,GI50,[9],2660 nM
same,TGI,[9],5.18 µM
same,GI50,[10],104 nM
same,TGI,[10],> 50 µM
same,GI50,[11],5.35 µM
same,TGI,[11],13.5 µM
same,GI50,[12],196 nM
same,TGI,[12],0.459 µM
same,GI50,[13],369 nM
same,TGI,[13],1.38 µM
same,GI50,[14],404 nM
same,TGI,[14],1.01 µM
same,GI50,[15],275 nM
same,TGI,[15],0.777 µM
same,GI50,[16],2190 nM
same,TGI,[16],> 50 µM
same,GI50,[17],1460 nM
same,TGI,[17],> 50 µM
same,GI50,[18],3.86 µM
same,TGI,[18],> 27.5 µM
same,GI50,[19],3.87 µM
same,TGI,[19],> 29.2 µM
same,GI50,[20],4 µM
same,TGI,[20],7.96 µM
same,GI50,[21],1210 nM
same,TGI,[21],3.46 µM
same,GI50,[22],435 nM
same,TGI,[22],1.08 µM
same,GI50,[23],1240 nM
same,TGI,[23],9.77 µM
same,GI50,[24],8.12 µM
same,TGI,[24],> 50 µM
same,GI50,[25],1220 nM
same,TGI,[25],3.91 µM
same,GI50,[28],178 nM
same,TGI,[28],0.568 µM
same,GI50,[29],531 nM
same,TGI,[29],> 19.2 µM
same,GI50,[30],1140 nM
same,TGI,[30],> 21.8 µM
same,GI50,[32],6.09 µM
same,TGI,[32],17.7 µM
same,GI50,[33],304 nM
same,TGI,[33],0.752 µM
same,GI50,[34],162 nM
same,TGI,[34],> 50 µM
same,GI50,[35],206 nM
same,TGI,[35],> 15.4 µM
same,GI50,[36],641 nM
same,TGI,[36],2.63 µM
same,GI50,[37],10.3 µM
same,TGI,[37],21.9 µM
same,GI50,[38],135 nM
same,TGI,[38],0.483 µM
same,GI50,[39],2010 nM
same,TGI,[39],> 50 µM
same,GI50,[41],479 nM
same,TGI,[41],1.48 µM
same,GI50,[42],7.15 µM
same,TGI,[42],15.3 µM
same,GI50,[43],157 nM
same,TGI,[43],> 50 µM
same,GI50,[44],170 nM
same,TGI,[44],1.49 µM
same,GI50,[45],393 nM
same,TGI,[45],1.31 µM
same,GI50,[46],373 nM
same,TGI,[46],0.79 µM
same,GI50,[47],630 nM
same,TGI,[47],2.26 µM
same,GI50,[48],912 nM
same,TGI,[48],1680 nM
same,GI50,[49],7.54 µM
same,TGI,[49],> 50 µM
same,GI50,[50],704 nM
same,TGI,[50],2080 nM
same,GI50,[51],1280 nM
same,TGI,[51],9.12 µM
same,GI50,[52],2790 nM
same,TGI,[52],10.3 µM
same,GI50,[53],119 nM
same,TGI,[53],0.36 µM
same,GI50,[55],774 nM
same,TGI,[55],2.79 µM
same,GI50,[56],5.76 µM
same,TGI,[56],16.4 µM
